Measurements as given in patent US20110306671A1, “AMIDE DERIVATIVES OF ETHACRYNIC ACID” (The Regents of the The University of California, priority 2008, published 2011).

Legend:
[1] = system: Wnt3a-induced transcription; assay: Stable Super8XTOPflash reporter HEK293 cells stimulated with Wnt3a; format: cell-based, human
Procedure: FIG. 1. Inhibition of Wnt/β-catenin signaling by EA. […] Cells were lysed and luciferase activity was quantified. Total protein levels were determined by Bradford Assay and serve as a control for total cell number. (B) HEK293 cells were co-transfected with TOPflash reporter construct, along with expression plasmids for Wnt1, Wnt3, LRP6, Dvl and β-catenin as indicated. […] (C) HEK293 cells were transfected with FOPflash reporter with or without an expression plasmid for β-catenin. […] (D) HEK293 cells were transfected with NFAT reporter and expression plasmid for NFATc. […] The results are expressed as fold induction of luciferase activity compared to the basal level, and are the means of three experiments±SEM. The Super8XTOPflash construct (kindly provided by Dr. R. Moon) was stably transfected into HEK293 cells, and single cell clones were isolated. […] (2003) and Willert et al. (2008).

[2] = system: Primary CLL cells; assay: Cell viability assay (MTT) with primary CLL cells; settings: 48 hours
[3] = system: Wnt signaling; assay: CellSensor LEF/TCF-bla SW480 cell-based assay (Wnt signaling inhibition); parameters: species or system human; settings: Homo sapiens; LEF/TCF-bla SW480 cells, 20 hours
Procedure: To determine the specificity of compounds on Wnt/[…]-catenin pathway inhibition, CellSensor LEF/TCF-bla SW480 cell-based assay (Invitrogen, Carlsbad, Calif.) was used according to the supplier's instructions, but modified for a 96 well format. Cells were plated at 25,000 cells/well in assay medium in 96-well black plates with clear bottom (Corning) the day prior to compound treatment.

[4] = system: different tumor cell lines; assay: Cytotoxicity of EA in different tumor cell lines (summary); format: cell-based; settings: read-out: mean 50% inhibitory concentration (IC50) of EA in these cell lines; range over the tumor cell lines of Table 3
[5] = system: Primary CLL cells; assay: Cell apoptosis assay (DiOC6/PI flow cytometry) in primary CLL cells; format: cell-based, human; settings: 3 μM EA; preliminary, data not shown
[6] = system: RAMOS; assay: Cytotoxicity of EA in tumor cell line RAMOS; format: cell-based; settings: Homo sapiens, mean of at least two experiments
[7] = molecular target: T1, LEF-1/β-catenin complex (Homo sapiens, UniProt Q9UJU2); assay: Co-immunoprecipitation of the β-catenin complex in SW480 cells; format: cell-based; settings: increasing EA, 16 hours
T1 construct: endogenous in cells; host or cells: SW480 cells
T1 sequence (Q9UJU2 whole entry, one chain of several): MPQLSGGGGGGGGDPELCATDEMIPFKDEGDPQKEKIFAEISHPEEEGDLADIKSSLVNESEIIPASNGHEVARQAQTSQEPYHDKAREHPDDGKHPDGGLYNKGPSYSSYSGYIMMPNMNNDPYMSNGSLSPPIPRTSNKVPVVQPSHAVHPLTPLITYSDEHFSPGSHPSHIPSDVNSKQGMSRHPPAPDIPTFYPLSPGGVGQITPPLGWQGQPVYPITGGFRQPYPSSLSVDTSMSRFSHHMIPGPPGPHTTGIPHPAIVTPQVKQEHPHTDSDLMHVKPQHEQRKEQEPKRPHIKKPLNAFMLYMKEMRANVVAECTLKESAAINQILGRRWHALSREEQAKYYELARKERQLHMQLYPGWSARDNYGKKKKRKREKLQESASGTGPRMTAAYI
Procedure: FIG. 7. EA destabilizes the LEF-1/β-catenin complex. (A) SW480 cells were treated with increasing amounts of EA for 16 hours. Cells were lysed, and IP was completed with anti-β-catenin monoclonal antibody. The immune complexes were analyzed by immunoblotting with anti-LEF-1, anti-α-catenin and anti-β-catenin antibodies. (B) EA inhibits Wnt/β-catenin signaling in SW480 cells. SW480 cells were transfected with TOPflash reporter and control plasmid pCMXβgal. After transfection for 24 hours, cells were treated with increasing concentrations of EA for another 24 hours as indicated. Cells were then harvested and luciferase values were determined. The results are expressed as relative luciferase activity (%) normalized to a β-galactosidase control.
Primary CLL cells and SW480 cells were treated with the indicated amounts of EA. Cells were washed twice with PBS and resuspended in 0.5 mL lysis buffer (20 mM Tris-HCl, pH 8.0/10% glycerol/5 mM MgCl2/0.15 M KCl/0.1% Nonidet P-40 with protease inhibitors). For CLL cells, lysates of 1 to 2×10^7 cells were incubated with anti-LEF-1 antibody at a 1:1000 dilution overnight at 4° C., and then with saturating amounts of protein G plus/protein A agarose beads (Calbiochem) at 4° C. for 2 hours before centrifugation at 15,000 g for 5 minutes. […]

[8] = system: B16; assay: Cytotoxicity of EA in tumor cell line B16; format: cell-based; settings: Mus musculus, mean of at least two experiments
[9] = system: MCF-7; assay: Cytotoxicity of EA in tumor cell line MCF-7; format: cell-based; settings: Homo sapiens, MCF7, mean of at least two experiments
[10] = system: LNCap; assay: Cytotoxicity of EA in tumor cell line LNCap; format: cell-based; settings: Homo sapiens, mean of at least two experiments
[11] = system: SK-Mel-28; assay: Cytotoxicity of EA in tumor cell line SK-Mel-28; format: cell-based; settings: Homo sapiens, mean of at least two experiments
[12] = system: lymphoma and myeloma cells; settings: Schmidt et al., 2009; cited from earlier work

**Q.** For `C=C(CC)C(=O)c1ccc(OCC(=O)O)c(Cl)c1Cl` [Compound 1, Ethacrynic acid], which IC50 ([1]; Homo sapiens, HEK293, read-out: IC50 for inhibition of Wnt3A-induced transcription) is on record?
**A.** Its IC50 is about 25 µM.

**Q.** What about the “effect on Wnt3a-induced transcription of the SuperTOPflash reporter” value ([1]; Wnt3a 10 nM, EA 20-35 μM, 18 hours) of the same molecule?
**A.** The value was “blocked Wnt3a-induced transcription in a dose-dependent manner”.

**Q.** What about the EC50 ([2]; read-out: CLL Inhibition EC50, CLL survival, MTT) of the same molecule?
**A.** The EC50 was 9.9 µM.

**Q.** What about the IC50 ([2]; read-out: IC50-EA, Primary CLL cells from nine patients, mean) of the same molecule?
**A.** The IC50 was 8.56 µM.

**Q.** And the IC50 [3]?
**A.** Its IC50 is 32.7 µM.

**Q.** And the IC50 [4]?
**A.** The IC50 was 40 to 200 µM.

**Q.** What about the “effect on fludarabine-mediated apoptosis of CLL cells” value [5] of the same molecule?
**A.** The value was “enhanced”.

**Q.** What about the IC50 [6] of the same molecule?
**A.** Its IC50 is 174 µM.

**Q.** And the “LEF-1 levels in the β-catenin complex” value [7]?
**A.** The value was “decreased LEF-1 levels in the β-catenin complex in a concentration-dependent manner”.

**Q.** What about the “α-catenin levels in the β-catenin complex” value [7] of the same molecule?
**A.** Its value is “little effect”.

**Q.** What about the IC50 [8] of the same molecule?
**A.** The IC50 was 201 µM.

**Q.** And the IC50 [9]?
**A.** Its IC50 is 63 µM.

**Q.** And the IC50 [10]?
**A.** The IC50 was 46 µM.

**Q.** And the IC50 [11]?
**A.** Its IC50 is 122 µM.

**Q.** And the induction of apoptosis [12]?
**A.** The induction of apoptosis was “significant induction of apoptosis”.
